Data taken from patent US20110082130A1 (LIGAND PHARMACEUTICALS, INC., priority 2006, published 2011).

Molecular target: T1, chimeric human H3 receptor (Homo sapiens, UniProt Q9Y5N1)
T1 construct: made in house; host or cells: Sf9 insect cells (baculovirus); P2 membrane preparation
Test: Chimeric human H3 receptor screening GTP binding assay (inhibition of histamine-stimulated GTP-gamma35S binding, Example 8)
Format: biochemical
Conditions: 4 μM of the compound, 1 μM histamine, "†" in Ki of Table II, read-out: percent inhibition of the signal obtained with 1 μM histamine
Description: This Example illustrates a representative screening assay for evaluating inhibition of histamine-stimulated GTP-gamma^35S binding. Such GTP binding activity can be used to identify H3 antagonists and inverse agonists. A compound analyzed in this assay is referred to herein as a “test compound,” and the initial identification of antagonists and inverse agonists is performed using a test compound concentration of 4 μM.
Four independent baculoviral stocks (one directing the expression of the chimeric human H3 receptor and three directing the expression of each of the three subunits of a heterotrimeric G-protein) are used to infect a culture of Sf9 cells as described above. P2 membranes are prepared as described above, and are resuspended by Dounce homogenization (tight pestle) in GTP binding assay buffer (50 mM Tris pH 7.4, 120 mM NaCl, 5 mM MgCl2, 2 mM EGTA, 1 mg/ml BSA, 0.2 mg/ml bacitracin, 0.02 mg/ml aprotinin, 0.01 mg/ml saponin, 10 μM GDP) and added to assay tubes at a concentration of 35 μg protein/reaction tube. Non-radiolabeled test compounds are added to separate reactions at a concentration of 4 μM along with 1 μM histamine (agonist). Reactions are initiated by the addition of […] GTP-gamma^35S with a final assay volume of 0.20 ml.
After a 60-min incubation at room temperature, reactions are terminated by vacuum filtration over GF/C filters (pre-soaked in 50 mM Tris pH 7.4, 120 mM NaCl plus 0.1% BSA) followed by washing with ice-cold buffer (50 mM Tris pH 7.4, 120 mM NaCl). The amount of receptor-bound (and thereby membrane-bound) GTP-gamma^35S is determined by measuring the bound radioactivity, preferably by liquid scintillation spectrometry of the washed filters. Non-specific binding is determined using 10 uM GTP-gammaS and typically represents less than 5 percent of total binding. After subtraction of non-specific binding, data is expressed as percent inhibition of 1 μM histamine signal.
Neutral antagonists are those test compounds that reduce the histamine-stimulated GTP binding activity towards, but not below, baseline levels. In contrast, in the absence of added histamine, inverse agonists reduce the GTP binding activity of the receptor-containing membranes below baseline. Any test compound that elevates GTP binding activity above baseline in the absence of added histamine in this assay is defined as having agonist activity.

T1 sequence (Q9Y5N1 with tags, fused parts or gaps): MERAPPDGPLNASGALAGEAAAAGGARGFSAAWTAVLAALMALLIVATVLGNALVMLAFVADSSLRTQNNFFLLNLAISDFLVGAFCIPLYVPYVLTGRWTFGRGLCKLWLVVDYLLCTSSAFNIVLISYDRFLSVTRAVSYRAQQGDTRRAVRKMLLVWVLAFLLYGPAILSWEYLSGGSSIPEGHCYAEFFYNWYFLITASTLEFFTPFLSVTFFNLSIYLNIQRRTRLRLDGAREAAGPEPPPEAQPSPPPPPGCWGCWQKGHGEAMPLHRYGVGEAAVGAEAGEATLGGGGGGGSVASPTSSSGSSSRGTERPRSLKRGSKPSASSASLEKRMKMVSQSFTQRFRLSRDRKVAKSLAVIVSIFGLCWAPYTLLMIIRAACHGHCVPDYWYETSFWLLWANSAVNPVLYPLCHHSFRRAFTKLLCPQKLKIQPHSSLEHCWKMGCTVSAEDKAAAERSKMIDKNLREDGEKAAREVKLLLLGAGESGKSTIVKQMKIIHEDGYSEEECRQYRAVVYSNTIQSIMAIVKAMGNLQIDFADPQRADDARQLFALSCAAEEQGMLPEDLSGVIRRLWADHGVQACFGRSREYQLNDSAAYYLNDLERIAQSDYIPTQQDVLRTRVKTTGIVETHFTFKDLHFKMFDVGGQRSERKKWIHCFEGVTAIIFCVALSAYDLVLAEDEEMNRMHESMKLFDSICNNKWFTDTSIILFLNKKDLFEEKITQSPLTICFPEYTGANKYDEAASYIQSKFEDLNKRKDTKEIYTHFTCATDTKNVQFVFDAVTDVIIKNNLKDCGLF

inhibition at 4 µM | Structure (SMILES)
≥ 90% | CC(C)c1ccc(-c2ccc3c(c2)CCN(CC(=O)N2CCN(C4CCCC4)CC2)C3)cc1 [Compound 444, 2-[2-(4-cyclopentylpiperazin-1-yl)-2-oxoethyl]-6-(4-isopropylphenyl)-1,2,3,4-tetrahydroisoquinoline]
≥ 90% | CC(C)c1ccc(-c2ccc3c(c2)CCN(CC(=O)N2CCN(C4CCCCC4)CC2)C3)cc1 [Compound 445, 2-[2-(4-cyclohexylpiperazin-1-yl)-2-oxoethyl]-6-(4-isopropylphenyl)-1,2,3,4-tetrahydroisoquinoline]
≥ 90% | Cc1ccc(-c2ccc3c(c2)CCN(CC(=O)N2CCN(C4CCCCC4)CC2)C3)cc1C [Compound 449, 2-[2-(4-cyclohexylpiperazin-1-yl)-2-oxoethyl]-6-(3,4-dimethylphenyl)-1,2,3,4-tetrahydroisoquinoline]
≥ 90% | CCCCc1ccc(-c2ccc3c(c2)CCN(CC(=O)N2CCN(C4CCC4)CC2)C3)cc1 [Compound 451, 6-(4-butylphenyl)-2-[2-(4-cyclobutylpiperazin-1-yl)-2-oxoethyl]-1,2,3,4-tetrahydroisoquinoline]
≥ 90% | CCCCc1ccc(-c2ccc3c(c2)CCN(CC(=O)N2CCN(C4CCCC4)CC2)C3)cc1 [Compound 452, 6-(4-butylphenyl)-2-[2-(4-cyclopentylpiperazin-1-yl)-2-oxoethyl]-1,2,3,4-tetrahydroisoquinoline]
≥ 90% | CCCCc1ccc(-c2ccc3c(c2)CCN(CC(=O)N2CCN(C4CCCCC4)CC2)C3)cc1 [Compound 453, 6-(4-butylphenyl)-2-[2-(4-cyclohexylpiperazin-1-yl)-2-oxoethyl]-1,2,3,4-tetrahydroisoquinoline]
≥ 90% | CCCCc1ccc(-c2ccc3c(c2)CCN(CC(=O)N2CCN(C(C)C)CC2)C3)cc1 [Compound 454, 6-(4-butylphenyl)-2-[2-(4-isopropylpiperazin-1-yl)-2-oxoethyl]-1,2,3,4-tetrahydroisoquinoline]
≥ 90% | CCc1ccc(-c2ccc3c(c2)CCN(CC(=O)N2CCN(C4CCC4)CC2)C3)cc1 [Compound 459, 2-[2-(4-cyclobutylpiperazin-1-yl)-2-oxoethyl]-6-(4-ethylphenyl)-1,2,3,4-tetrahydroisoquinoline]
≥ 90% | CCc1ccc(-c2ccc3c(c2)CCN(CC(=O)N2CCN(C4CCCC4)CC2)C3)cc1 [Compound 460, 2-[2-(4-cyclopentylpiperazin-1-yl)-2-oxoethyl]-6-(4-ethylphenyl)-1,2,3,4-tetrahydroisoquinoline]
≥ 90% | CCc1ccc(-c2ccc3c(c2)CCN(CC(=O)N2CCN(C4CCCCC4)CC2)C3)cc1 [Compound 461, 2-[2-(4-cyclohexylpiperazin-1-yl)-2-oxoethyl]-6-(4-ethylphenyl)-1,2,3,4-tetrahydroisoquinoline]
≥ 90% | CCCc1ccc(-c2ccc3c(c2)CCN(CC(=O)N2CCN(C4CCC4)CC2)C3)cc1 [Compound 463, 2-[2-(4-cyclobutylpiperazin-1-yl)-2-oxoethyl]-6-(4-propylphenyl)-1,2,3,4-tetrahydroisoquinoline]
≥ 90% | CCCc1ccc(-c2ccc3c(c2)CCN(CC(=O)N2CCN(C4CCCC4)CC2)C3)cc1 [Compound 464, 2-[2-(4-cyclopentylpiperazin-1-yl)-2-oxoethyl]-6-(4-propylphenyl)-1,2,3,4-tetrahydroisoquinoline]
≥ 90% | CCCc1ccc(-c2ccc3c(c2)CCN(CC(=O)N2CCN(C4CCCCC4)CC2)C3)cc1 [Compound 465, 2-[2-(4-cyclohexylpiperazin-1-yl)-2-oxoethyl]-6-(4-propylphenyl)-1,2,3,4-tetrahydroisoquinoline]
≥ 90% | CCc1cccc(-c2ccc3c(c2)CCN(CC(=O)N2CCN(C4CCCC4)CC2)C3)c1 [Compound 468, 2-[2-(4-cyclopentylpiperazin-1-yl)-2-oxoethyl]-6-(3-ethylphenyl)-1,2,3,4-tetrahydroisoquinoline]
≥ 90% | CCc1cccc(-c2ccc3c(c2)CCN(CC(=O)N2CCN(C4CCCCC4)CC2)C3)c1 [Compound 469, 2-[2-(4-cyclohexylpiperazin-1-yl)-2-oxoethyl]-6-(3-ethylphenyl)-1,2,3,4-tetrahydroisoquinoline]

Continued, molecule first:

Structure (SMILES) | inhibition at 4 µM
CC(C)c1ccc(-c2ccc3c(c2)CCN(CC(=O)N2CCN(C(C)C)CC2)C3)cc1 [Compound 446, 6-(4-isopropylphenyl)-2-[2-(4-isopropylpiperazin-1-yl)-2-oxoethyl]-1,2,3,4-tetrahydroisoquinoline] | ≥ 90%
Cc1ccc(-c2ccc3c(c2)CCN(CC(=O)N2CCN(C4CCC4)CC2)C3)cc1C [Compound 447, 2-[2-(4-cyclobutylpiperazin-1-yl)-2-oxoethyl]-6-(3,4-dimethylphenyl)-1,2,3,4-tetrahydroisoquinoline] | ≥ 90%
Cc1ccc(-c2ccc3c(c2)CCN(CC(=O)N2CCN(C4CCCC4)CC2)C3)cc1C [Compound 448, 2-[2-(4-cyclopentylpiperazin-1-yl)-2-oxoethyl]-6-(3,4-dimethylphenyl)-1,2,3,4-tetrahydroisoquinoline] | ≥ 90%
Cc1ccc(-c2ccc3c(c2)CCN(CC(=O)N2CCN(C(C)C)CC2)C3)cc1C [Compound 450, 6-(3,4-dimethylphenyl)-2-[2-(4-isopropylpiperazin-1-yl)-2-oxoethyl]-1,2,3,4-tetrahydroisoquinoline] | ≥ 90%
Cc1cc(C)cc(-c2ccc3c(c2)CCN(CC(=O)N2CCN(C4CCC4)CC2)C3)c1 [Compound 455, 2-[2-(4-cyclobutylpiperazin-1-yl)-2-oxoethyl]-6-(3,5-dimethylphenyl)-1,2,3,4-tetrahydroisoquinoline] | ≥ 90%
Cc1cc(C)cc(-c2ccc3c(c2)CCN(CC(=O)N2CCN(C4CCCC4)CC2)C3)c1 [Compound 456, 2-[2-(4-cyclopentylpiperazin-1-yl)-2-oxoethyl]-6-(3,5-dimethylphenyl)-1,2,3,4-tetrahydroisoquinoline] | ≥ 90%
Cc1cc(C)cc(-c2ccc3c(c2)CCN(CC(=O)N2CCN(C4CCCCC4)CC2)C3)c1 [Compound 457, 2-[2-(4-cyclohexylpiperazin-1-yl)-2-oxoethyl]-6-(3,5-dimethylphenyl)-1,2,3,4-tetrahydroisoquinoline] | ≥ 90%
Cc1cc(C)cc(-c2ccc3c(c2)CCN(CC(=O)N2CCN(C(C)C)CC2)C3)c1 [Compound 458, 6-(3,5-dimethylphenyl)-2-[2-(4-isopropylpiperazin-1-yl)-2-oxoethyl]-1,2,3,4-tetrahydroisoquinoline] | ≥ 90%
CCc1ccc(-c2ccc3c(c2)CCN(CC(=O)N2CCN(C(C)C)CC2)C3)cc1 [Compound 462, 6-(4-ethylphenyl)-2-[2-(4-isopropylpiperazin-1-yl)-2-oxoethyl]-1,2,3,4-tetrahydroisoquinoline] | ≥ 90%
CCCc1ccc(-c2ccc3c(c2)CCN(CC(=O)N2CCN(C(C)C)CC2)C3)cc1 [Compound 466, 2-[2-(4-isopropylpiperazin-1-yl)-2-oxoethyl]-6-(4-propylphenyl)-1,2,3,4-tetrahydroisoquinoline] | ≥ 90%
CCc1cccc(-c2ccc3c(c2)CCN(CC(=O)N2CCN(C4CCC4)CC2)C3)c1 [Compound 467, 2-[2-(4-cyclobutylpiperazin-1-yl)-2-oxoethyl]-6-(3-ethylphenyl)-1,2,3,4-tetrahydroisoquinoline] | ≥ 90%
